Assay results: patent US20150291598A1 (NOVARTIS AG, priority 2012, published 2015)

Tested on: P. falciparum (NF54 or 3D7 strain)
Assay: Assay for P. falciparum proliferation in infected human blood cells (SYBR Green)
Format: cell-based, Plasmodium falciparum
Settings: NF54 or 3D7 infected human erythrocytes, 72 hours; read-out: EC50 (nM), inhibitory efficacy in delaying P. falciparum proliferation in infected human blood cells
Method: Assay for P. falciparum Proliferation in Infected Human Blood Cells
Compounds of the invention can be assayed to measure their capacity to inhibit proliferation of P. falciparum parasitemia in infected red blood cells. This parasite proliferation assay measures the increase in parasite DNA content using a DNA intercalating dye, SYBR Green® (INVITROGEN®) which has a high affinity for double stranded DNA.
NF54 or 3D7 P. falciparum strain is grown in complete culturing media until parasitemia reaches 3% to 8% with O+ human erythrocytes. […] 20 μl of screening media is dispensed into 384 well assay plates. 50 nl of compounds of the invention (in DMSO), including antimalarial controls (mefloquine, pyrimethamine and artemisinin), are then transferred into the assay plates, as well as DMSO alone to serve as a negative control for inhibition. Then 30 μl of a suspension of a NF54 or 3D7 P. falciparum infected erythrocytes in screening media is dispensed into the assay plates such that the final hematocrit is 2.5% with a final parasitemia of 0.3%. The plates are placed in a 37° C. incubator for 72 hours in a low oxygen environment containing 93% N2, 4% CO2, and 3% O2 gas mixture. 10 μl of lysis buffer (saponin, triton-X, EDTA) containing a 10× solution of SYBR Green I® in RPMI media is dispensed into the plates. The plates are lidded and kept at room temperature overnight for the lysis of the infected red blood cells. The fluorescence intensity is measured (excitation […], emission 530 nm) using the Envision™ system (Perkin Elmer).

Compound C[C@@H](N)C(=O)Nc1ccc(-c2cnc3cnc(C(=O)N(C)c4ccc(C#N)cc4)cn23)cc1 [Compound 282, 3-{4-[(2R)-2-aminopropanamido]phenyl}-N-(4-cyanophenyl)-N-methylimidazo[1,2-a]pyrazine-6-carboxamide] has an EC50 of 252 nM.

Same assay, conditions: Plasmodium falciparum, Erythrocyte, 72 h, NF54 or 3D7 infected human erythrocytes, 72 hours; read-out: EC50 (nM), inhibitory efficacy in delaying P. falciparum proliferation in infected human blood cells

Going from COC(=O)Nc1ccc(-c2cnc3cnc(CN(C)c4ccc(C)cn4)cn23)cc1 [Compound 318, methyl N-[4-(6-{[methyl(5-methylpyridin-2-yl)amino]methyl}imidazo[1,2-a]pyrazin-3-yl)phenyl]carbamate] to Cc1ccc(N(C)Cc2cn3c(-c4ccc5c(cnn5C)c4)cnc3cn2)nc1 [Compound 45, N,5-dimethyl-N-{[3-(1-methyl-1H-indazol-5-yl)imidazo[1,2-a]pyrazin-6-yl]methyl}pyridin-2-amine], the EC50 falls from 2310 nM to 178 nM (13-fold).

First: CN(C(=O)c1cn2c(-c3ccc(-c4cc[nH]n4)cc3)cnc2cn1)c1ccc(C#N)cc1 [Compound 484, N-(4-cyanophenyl)-N-methyl-3-[4-(1H-pyrazol-3-yl)phenyl]imidazo[1,2-a]pyrazine-6-carboxamide]
Second: CN(C(=O)c1cn2c(-c3ccc(-c4nncs4)cc3)cnc2cn1)c1ccc(C#N)cc1 [Compound 493, N-(4-cyanophenyl)-N-methyl-3-[4-(1,3,4-thiadiazol-2-yl)phenyl]imidazo[1,2-a]pyrazine-6-carboxamide]
The EC50 of the first is 26-fold lower: 20 nM for the first, 529 nM for the second. The first is the more potent here.

Going from CN(C(=O)c1cn2c(-c3ccc(C(F)(F)F)cc3)cnc2cn1)c1ncc(Br)cn1 [Compound 434, N-(5-bromopyrimidin-2-yl)-N-methyl-3-[4-(trifluoromethyl)phenyl]imidazo[1,2-a]pyrazine-6-carboxamide] to CN(C(=O)c1cn2c(-c3ccc(C(F)(F)F)cc3)cnc2cn1)c1cnc(Cl)cn1 [Compound 91, -(5-chloropyrazin-2-yl)-N-methyl-3-[4-(trifluoromethyl)phenyl]imidazo[1,2-a]pyrazine-6-carboxamide], the EC50 falls from 7090 nM to 4300 nM (1.6-fold). The second is the more potent here.

First: CN(C(=O)c1cn2c(-c3ccc(C(F)(F)F)cc3)cnc2cn1)c1ccc(Br)nn1 [Compound 96, N-(6-bromopyridazin-3-yl)-N-methyl-3-[4-(trifluoromethyl)phenyl]imidazo[1,2-a]pyrazine-6-carboxamide]
Second: COc1ccc(N(C)C(=O)c2cn3c(-c4ccc(C(F)(F)F)cc4)cnc3cn2)cn1 [Compound 88, N-(6-methoxypyridin-3-yl)-N-methyl-3-[4-(trifluoromethyl)phenyl]imidazo[1,2-a]pyrazine-6-carboxamide]
The EC50 of the first is 5.7-fold higher: 9990 nM for the first, 1740 nM for the second. The second is the more potent here.

CN(C(=O)c1cn2c(-c3ccc(Cl)cc3)cnc2cn1)c1ccc(Cl)cc1 [Compound 109, N,3-bis(4-chlorophenyl)-N-methylimidazo[1,2-a]pyrazine-6-carboxamide] and CN(C(=O)c1cn2c(-c3ccc(-c4nnco4)cc3)cnc2cn1)c1ccc(C#N)cc1 [Compound 240, N-(4-cyanophenyl)-N-methyl-3-[4-(1,3,4-oxadiazol-2-yl)phenyl]imidazo[1,2-a]pyrazine-6-carboxamide] are within 1.5-fold of each other in EC50: 120 nM for the first, 112 nM for the second.

Compared with CN(C(=O)c1cn2c(-c3ccc4c(c3)CC(=O)N4)cnc2cn1)c1ccc(Cl)nc1 [Compound 379, N-(6-chloropyridin-3-yl)-N-methyl-3-(2-oxo-2,3-dihydro-1H-indol-5-yl)imidazo[1,2-a]pyrazine-6-carboxamide], CN(C(=O)c1cn2c(-c3ccc(NCC(C)(C)N)cc3)cnc2cn1)c1ccc(C#N)cc1 [Compound 278, 3-{4-[(2-amino-2-methylpropyl)amino]phenyl}-N-(4-cyanophenyl)-N-methylimidazo[1,2-a]pyrazine-6-carboxamide] is 8-fold lower in EC50: 6260 nM for the first, 784 nM for the second.

In the case of CCn1nccc1NC(=O)c1cn2c(-c3ccc(C(F)(F)F)cc3)cnc2cn1 [Compound 368, N-(1-ethyl-1H-pyrazol-5-yl)-3-[4-(trifluoromethyl)phenyl]imidazo[1,2-a]pyrazine-6-carboxamide], the EC50 is reported as 7040 nM.
